For one series, the target named is T1, human aromatase (Homo sapiens, UniProt P11511).
T1 construct: The JEG-3 cell line, derived from a human placental choriocarcinoma, constitutively overexpresses human aromatase; endogenous in cells; host or cells: JEG-3 (human placental choriocarcinoma)
T1 sequence (P11511 1-503): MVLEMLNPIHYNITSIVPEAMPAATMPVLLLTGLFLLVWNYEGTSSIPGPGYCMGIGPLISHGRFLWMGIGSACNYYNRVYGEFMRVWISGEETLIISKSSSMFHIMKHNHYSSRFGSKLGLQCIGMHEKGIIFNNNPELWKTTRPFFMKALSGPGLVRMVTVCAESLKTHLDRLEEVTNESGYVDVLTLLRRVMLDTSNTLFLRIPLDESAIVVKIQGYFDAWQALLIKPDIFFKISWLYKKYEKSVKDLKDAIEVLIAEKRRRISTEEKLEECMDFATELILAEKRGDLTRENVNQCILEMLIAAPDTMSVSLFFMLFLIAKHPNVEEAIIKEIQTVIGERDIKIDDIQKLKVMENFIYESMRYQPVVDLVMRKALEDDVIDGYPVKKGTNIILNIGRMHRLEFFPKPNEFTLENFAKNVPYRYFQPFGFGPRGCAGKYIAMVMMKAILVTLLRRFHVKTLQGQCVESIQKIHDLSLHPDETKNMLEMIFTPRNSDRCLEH
As to the kind of experiment: Dual aromatase and steroid sulfatase activities in JEG-3 cells: aromatase readout. The series is classed as cell-based. As to conditions: footnote c: dual aromatase and sulfatase activity, nd: not detected, read-out: Aromatase activity IC50 (nM) ± S.E.M. How it is done:
Assays were carried out with cells in logarithmic growth phase on 96-well microplates. 24 h before studies, cells were seeded in decomplemented fetal calf serum (dFCS) supplemented medium. The medium was removed 24 h later and cells were rinsed with PBS to eliminate any trace of dFCS. Then, ^3H-E1S was added in dFCS free medium, followed by test compounds at concentrations ranging from 10^−12 M to 10^−5 M. After 4 h of treatment, the medium was transferred into 96-deep-well microplates and centrifuged at 200×g for 10 min to pellet cells before toluene extraction. A fraction of the medium was used for toluene extraction in order to separate the conjugated substrate from non-conjugated products. The radioactivity in the toluene phase was measured by liquid scintillation counting. […] Finally, estrone sulfatase activity was expressed in pmoles of ^3H-E1+^3H-E2 formed/4 hours/mg DNA and estrone sulfatase inhibition as a percentage of control activity without inhibitor.
In order to evaluate the inhibitory potency of DASI compounds in parallel on both human aromatase and steroid sulfatase activities, a new in vitro model was set up using JEG-3 cells. The experimental conditions of the steroid sulfatase model previously described was adopted with slight modifications: the presence of the two substrates ^3-HE1S and 1β-^3H-androstenedione into the medium and an incubation period of 2 hours. Results were expressed in pmoles of product formed (^3H-E1+^3H-E2 or ^3H2O)/2 hours/mg DNA (Table 1).

The test system of another series is Ishikawa cells. As to the kind of experiment: Alkaline phosphatase activity in Ishikawa cells (estrogenic potency). Type of series: cell-based. As to conditions: hydrochloride. How it is done:
Ishikawa cells were plated into 96-well microplates 48 hours before studies. The next day, the medium was replaced by phenol red free medium supplemented with 5% charcoal-stripped dFCS. 24 hours later, the medium was renewed and compounds were added to the plated cells and incubated for an additional four-day period. […] At the end of the incubation period, alkaline phosphatase activity (APase) was assayed by a method involving the hydrolysis of p-nitrophenyl phosphate to p-nitrophenol and spectrophotometric determination of the product at 405 nm.
In brief, the microplates were first rinsed twice with cold phosphate buffered solution and then placed at −80° C. for at least 15 minutes. After thawing at room temperature, 50 μl ice-cold solution containing 5 mM p-nitrophenyl phosphate was added to each well. After a 15 to 60 minute incubation period at room temperature, the intensity of the yellow color generated by the production of p-nitrophenol was measured into each well at 405 nm.
For each tested concentration, APase activity, reflected by absorbance, was first expressed as fold increase over control (FI) and then as percentage of E2 activity (10^-8 M) chosen equal to 100%.

For another series, the system named is steroid sulfatase. As to the kind of experiment: Anti uterotrophic/anti steroid sulfatase activity in vivo. More on the design: species or system rat. How it is done: Wistar female rats were ovariectomized and left to rest for 4 weeks. Prior to treatment, the absence of cyclicity was checked by vaginal smears. Animals were supplemented with estrone sulfate (EIS) at 50 μg/kg/day s.c., alone or combined with oral administration of potential sulfatase inhibitors, at 1 mg/kg/day for 4 days. The uteri were removed, freed of adjacent tissue and wet weighed (Table 3).
Estrone sulfatase activity is measured according to the method described by Purohit et al., with slight modifications. Briefly, uteri were thawed, weighed and homogenized. Aliquots of the supernatant were treated with dextran-coated charcoal and assayed for sulfatase. E1S activity is assessed after 30 min of incubation with 5 nM of ^3H-E1S and 20 μM of unlabelled E1S as substrate. Estrone sulfatase activity is expressed as pmol/h/mg protein and reported as percentage of inhibition vs E1S; for uterus weights, results are expressed as % of inhibition of the E1S induced stimulation

The test system of the next series is aromatase. Briefly: Inhibition of estradiol peak, in vivo aromatase inhibition model. More on the design: species or system rat. The note with it: female rats, 24 hours after one oral administration. The method, then:
One hundred IOPS Wistar female rats, weighing 180 to 200 g, were accommodated by four in stainless steel mesh cages. […] Vaginal smears were performed for each animal, each morning, in order to establish the different phases of cycle. […] Starting at 4.00 pm, animals received an oral administration of formulations. 24 hours later, samples of serum were collected and estradiol level were determined as previously described (Table 4).

“Also recorded” adds a separate entry of the source.

The molecule `Cl.N#Cc1ccc(N(Cc2ccc(OS(N)(=O)=O)c(Br)c2)n2ccnc2)cc1` [Ex 45, Sulfamic acid 2-bromo-4-{[N-(4-cyanophenyl)-N-(1H-imidazol-1yl)amino]methyl}phenyl ester, hydrochloride] showed a melting point of 145 °C. Besides, the IC50 at human aromatase is less than 1 nM. In the series with Ishikawa cells, the “estrogenicity in vitro (in words)” value was “not estrogenic; also recorded: lack of estrogenicity”. For the same molecule, the “inhibition of E1S (sulfatase) concluded from uterus weight inhibition” value in the series on steroid sulfatase (concluded from linear correlation between sulfatase inhibition and uterus weight inhibition (WO 2004/101545)) is listed as greater than 90%. Also, the “% inhibition (uterus weight)” value with steroid sulfatase (ovariectomized Wistar female rats, E1S 50 μg/kg/day s.c., oral 1 mg/kg/day for 4 days, % of inhibition of the E1S induced stimulation) worked out at 70%. In addition, the “% inhibition (estradiol peak)” value in the series on aromatase is 28%.

One may read the IC50 as the concentration at which inhibition is half-maximal. The melting point is the temperature, or range, at which the solid turns liquid.

The record behind these values is patent publication US8476455B2, “1-N-phenyl-amino-1h-imidazole derivatives and pharmaceutical compositions containing them” (Laboratoire Theramex, priority 2003, dated 2013).
